Reference: ChEMBL document CHEMBL3885881, “DrugMatrix”

Organism: Rattus norvegicus
Assay: DrugMatrix - Regimen: Daily Repeat
Type: toxicity, organism-based, Sprague-Dawley
Set-up: regimen Daily Repeat, gender Male, age 6-8 weeks
Conditions: in vivo, po, 20 mg/kg, route oral GAVAGE, dose level Low, vehicle 100 % WATER; for ABSOLUTE BASOPHIL / ABSOLUTE EOSINOPHIL / ABSOLUTE LYMPHOCYTE / ABSOLUTE MONOCYTE / ABSOLUTE SEGMENTED NEUTROPHIL / BASOPHIL / EOSINOPHIL / ERYTHROCYTE COUNT / HEMATOCRIT / HEMOGLOBIN / LEUKOCYTE COUNT / LYMPHOCYTE / MEAN CORPUSCULAR HEMOGLOBIN / MEAN CORPUSCULAR HEMOGLOBIN CONCENTRATION / MEAN CORPUSCULAR VOLUME / MONOCYTE / NEUTROPHIL / NUCLEATED RED BLOOD CELLS / PLATELET COUNT: tissue Blood
[1] = 72 h, tissue Plasma, time 3 day
[2] = 120 h, tissue Plasma, time 5 day

Compound: COCCCOc1ccnc(C[S+]([O-])c2nc3ccccc3[nH]2)c1C (stereo not given) [RABEPRAZOLE]
- ABSOLUTE BASOPHIL (72 h, time 3 day): 0 CELLS/uL
- ABSOLUTE EOSINOPHIL (72 h, time 3 day): 317.67 CELLS/uL
- ABSOLUTE LYMPHOCYTE (72 h, time 3 day): 11906.67 CELLS/uL
- ABSOLUTE MONOCYTE (72 h, time 3 day): 267.33 CELLS/uL
- ABSOLUTE SEGMENTED NEUTROPHIL (72 h, time 3 day): 875 CELLS/uL
- BASOPHIL (72 h, time 3 day): 0%
- EOSINOPHIL (72 h, time 3 day): 2.33%
- ERYTHROCYTE COUNT (72 h, time 3 day): 5.67 x10E6/uL
- HEMATOCRIT (72 h, time 3 day): 36.1%
- HEMOGLOBIN (72 h, time 3 day): 13.63 G/DL
- LEUKOCYTE COUNT (72 h, time 3 day): 13.37 x10E3/uL
- LYMPHOCYTE (72 h, time 3 day): 89%
- MEAN CORPUSCULAR HEMOGLOBIN (72 h, time 3 day): 24.07 pg
- MEAN CORPUSCULAR HEMOGLOBIN CONCENTRATION (72 h, time 3 day): 37.8 G/DL
- MEAN CORPUSCULAR VOLUME (72 h, time 3 day): 63.8 fL
- MONOCYTE (72 h, time 3 day): 2%
- NEUTROPHIL (72 h, time 3 day): 6.67%
- NUCLEATED RED BLOOD CELLS (72 h, time 3 day): 0 /100WBC
- PLATELET COUNT (72 h, time 3 day): 1283.67 x10E3/uL
- ALANINE AMINOTRANSFERASE [1]: 42 u/L
- ALBUMIN [1]: 4.3 G/DL
- ALKALINE PHOSPHATASE [1]: 427.67 u/L
- ASPARTATE AMINOTRANSFERASE [1]: 83.33 u/L
- BLOOD UREA NITROGEN [1]: 14.33 mg/dL
- CARBON DIOXIDE [1]: 27 mmol/L
- CHLORIDE [1]: 105.67 MEQ/L
- CHOLESTEROL [1]: 82.33 mg/dL
- CREATINE PHOSPHOKINASE [1]: 491.33 u/L
- CREATININE [1]: 0.16 mg/dL
- GLUCOSE [1]: 161.67 mg/dL
- LACTATE DEHYDROGENASE [1]: 92.33 u/L
- LIPASE [1]: 9 u/L
- PHOSPHORUS [1]: 14.1 mg/dL
- POTASSIUM [1]: 6.68 MEQ/L
- SODIUM [1]: 146.6 MEQ/L
- TOTAL BILIRUBIN [1]: 0.2 mg/dL
- TOTAL PROTEIN [1]: 5.87 G/DL
- URIC ACID [1]: 2.2 mg/dL
- ABSOLUTE BASOPHIL (120 h, time 5 day): 0 CELLS/uL
- ABSOLUTE EOSINOPHIL (120 h, time 5 day): 38.67 CELLS/uL
- ABSOLUTE LYMPHOCYTE (120 h, time 5 day): 10652 CELLS/uL
- ABSOLUTE MONOCYTE (120 h, time 5 day): 120.67 CELLS/uL
- ABSOLUTE SEGMENTED NEUTROPHIL (120 h, time 5 day): 788.67 CELLS/uL
- BASOPHIL (120 h, time 5 day): 0%
- EOSINOPHIL (120 h, time 5 day): 0.33%
- ERYTHROCYTE COUNT (120 h, time 5 day): 5.6 x10E6/uL
- HEMATOCRIT (120 h, time 5 day): 36.27%
- HEMOGLOBIN (120 h, time 5 day): 13.6 G/DL
- LEUKOCYTE COUNT (120 h, time 5 day): 11.6 x10E3/uL
- LYMPHOCYTE (120 h, time 5 day): 91.67%
- MEAN CORPUSCULAR HEMOGLOBIN (120 h, time 5 day): 24.27 pg
- MEAN CORPUSCULAR HEMOGLOBIN CONCENTRATION (120 h, time 5 day): 37.5 G/DL
- MEAN CORPUSCULAR VOLUME (120 h, time 5 day): 64.73 fL
- MONOCYTE (120 h, time 5 day): 1%
- NEUTROPHIL (120 h, time 5 day): 7%
- NUCLEATED RED BLOOD CELLS (120 h, time 5 day): 0 /100WBC
- PLATELET COUNT (120 h, time 5 day): 1417.67 x10E3/uL
- ALANINE AMINOTRANSFERASE [2]: 49.33 u/L
- ALBUMIN [2]: 4.17 G/DL
- ALKALINE PHOSPHATASE [2]: 321 u/L
- ASPARTATE AMINOTRANSFERASE [2]: 105 u/L
- BLOOD UREA NITROGEN [2]: 19 mg/dL
- CARBON DIOXIDE [2]: 23 mmol/L
- CHLORIDE [2]: 110 MEQ/L
- CHOLESTEROL [2]: 67 mg/dL
- CREATINE PHOSPHOKINASE [2]: 1368.67 u/L
- CREATININE [2]: 0.21 mg/dL
- GLUCOSE [2]: 203 mg/dL
- LACTATE DEHYDROGENASE [2]: 225 u/L
- LIPASE [2]: 8.67 u/L
- PHOSPHORUS [2]: 13.93 mg/dL
- POTASSIUM [2]: 6.05 MEQ/L
- SODIUM [2]: 148.17 MEQ/L
- TOTAL BILIRUBIN [2]: 0.2 mg/dL
- URIC ACID [2]: 1.77 mg/dL
